The test system of assay [1] is HEK293-type cells. Kind of assay: Cellular DNA content by Vybrant staining and flow cytometry of cultured HEK293-type cells. The assay is classed as cell-based, human. As to conditions: ascorbic acid 5 µg/ml, 24 hrs of culture, versus culture in the absence of ascorbic acid. As for the experimental part: HEK293-type cells were taken from a working cell bank and were cultured in an appropriate tissue culture vessel in an appropriate tissue culture medium both known by a person skilled in the art. They were expanded at appropriate conditions, such 37° C., 5% CO2. Cell growth and density was monitored daily. One day after cellular confluency was reached the cells were harvested by methods known by a person skilled in the art. The harvested HEK293-type cells were diluted in tissue culture medium and reseeded in an appropriate tissue culture vessel in and appropriate tissue culture medium. To one set of HEK293-type cells ascorbic acid was added at a final concentration of 5 µg/ml. After 24 hrs of culture, the cells were harvested and stained for DNA content by Vybrant (Invitrogen) following the manufacturers protocols. The cells were analyzed by fluorescence on a fluorescence activate cell analyzer (Beckman-Coulter Cytomics FC500).

Assay [2] relates to HEK293-type cells. Kind of assay: Production (encapsidation) of the fully deleted helper virus independent Adenoviral vector fdhiAdGFP, read out as GFP-expressing cells after infection with supernatant. Type of assay: cell-based, human. An excerpt: In the present example, the use of ascorbic acid composition exemplified by its used for the production of DNA virus, such as, but not limited to, a fully deleted helper virus independent Adenoviral vector. The vector production systems is comprised of three components (as exemplified in FIG. 1): (i) The GreVac module is packaged into the vector. It carries an expression cassette for a transgene, such as the green fluorescent protein, (cytomegalovirus immediate early promotor/enhancer / transgene / human growth hormone poly-adenylation sequence) flanked by ITRs and Ψ sequences, and is called fdhiAdGFP. […]
HEK293-type cells were taken from the working cell bank and were cultured in an appropriate tissue culture vessel in an appropriate tissue culture medium both known by someone experienced in the art. […] Cell growth and density were monitored daily by light microscopy. […]
To measure the efficiency of encapsidation, HEK293-type cells in culture were infected with defined volumes of the Adenoviral vector containing supernatants. […] Then they were harvested and examined for the extent of green fluorescence on a fluorescence activate cell analyzer (Beckman-Coulter Cytomics FC500) as an indicator of the number of infectious adenoviral particles released from the production cells.

Take `O=C1O[C@H]([C@@H](O)CO)C(O)=C1O` [ascorbic acid]: in the assay with HEK293-type cells [1], the “levels of DNA content in cells” value is given as “increased levels of DNA”; the “percentage of cells in the S and G2 stages of the cell cycle” value is “a larger percentage of cells had entered the S and G2 stages of the cell cycle”. Moreover, in the assay with HEK293-type cells [2] (ascorbic acid added to production cells, conclusion from the studies), the “rate of encapsidation of a gene transfer vector” value was “increased the rate of encapsidation”. In addition, the “number of infected (GFP-expressing) cells after infection with Adenoviral vector containing supernatant” value with HEK293-type cells [2] (production cells with ascorbic acid 5 µg/ml, 5 days of production, transduced cells read after 2 days, versus no ascorbic acid) was “significantly larger number of infected cells”.

(Values after patent publication US20230036911A1, “CULTURE SYSTEMS FOR THE EFFICIENT PRODUCTION OF GENE TRANSFER VECTORS” (Greffex, Inc., priority 2019, published 2023).)
